# Measurements from ChEMBL document CHEMBL1129457, “Indole inhibitors of human nonpancreatic secretory phospholipase A2. 1. Indole-3-acetamides” (J Med Chem, 1996).
# Tests used:
# [1] = target: T1, Phospholipase A2, membrane associated (Homo sapiens, UniProt P14555); assay: Inhibition of Human Nonpancreatic Secretory Phospholipase A2 through Chromogenic assay; type: functional
# T1 sequence (P14555 whole entry): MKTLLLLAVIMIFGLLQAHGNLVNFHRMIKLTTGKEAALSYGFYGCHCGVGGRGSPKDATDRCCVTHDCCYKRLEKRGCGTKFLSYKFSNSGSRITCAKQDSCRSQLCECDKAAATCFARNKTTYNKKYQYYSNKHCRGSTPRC
# [2] = target: T2, Phospholipase A2, membrane associated (Homo sapiens) (UniProt P14555); assay: Inhibition of PLA2 induced contraction of GP lung tissue (Guinea pig) (n=4); type: functional, tissue-based; conditions: Cavia porcellus, target entry is the homologue from another species
# T2 sequence (whole entry): T1 sequence (P14555 whole entry)
# Cavia porcellus = organism: Cavia porcellus; assay: Inhibition of AA (arachidonic acid) - induced contraction of GP lung tissue (n=4).; type: functional
# [3] = target: T2, Phospholipase A2, membrane associated (Homo sapiens); assay: Mole fraction as PLA2 IC50 concentration divided by total lipid concentration (1230 uM); type: functional
# [4] = target: T2, Phospholipase A2, membrane associated (Homo sapiens); assay: Inhibition of Human Nonpancreatic Secretory PLA2 through Chromogenic assay at 47ug/mL; type: functional
SMILES,IC50 [1] [µM],Kb [2] [µM],also measured
CCC(C(=O)NN)c1c(C)n(Cc2ccccc2)c2ccc(OC)cc12 (stereo unspecified),24.2,,
CCc1c(C(=O)C(N)=O)c2c(OC)cccc2n1Cc1ccccc1,0.55,,
COc1ccc2c(c1)c(CC(=O)NN)c(C)n2C(c1ccccc1)c1ccccc1,40.2,,
COc1ccc2c(c1)c(CC(=O)NN)c(C)n2Cc1cccc(OCc2ccccc2)c1,,3.86,ED50 (Cavia porcellus): >30 µM
CCCCCCC(C(=O)NN)c1c(C)n(Cc2ccccc2)c2ccc(OC)cc12 (stereo unspecified),101,,
COc1ccc2c(c1)c(CCC(N)=O)c(C)n2Cc1ccccc1,28.1,,
COc1cccc2c1c(CC(=O)NN)c(C)n2Cc1cccc(Cl)c1,0.23,,
COc1ccc2c(c1)c(CC(=O)NN)c(C)n2Cc1cccc(-c2ccccc2)c1,,22.6,
COc1ccc2c(c1)c(CC(N)=O)c(C)n2CC1CCCCC1,,22.5,ED50 (Cavia porcellus): 25.65 µM
COc1ccc2c(c1)c(CC(=O)NN)c(C)n2Cc1cccc(N)c1,4.32,,
CCc1c(CC(N)=O)c2c(OC)cccc2n1Cc1ccccc1,1.18,,
COc1cccc2c1c(CC(=O)NN)c(C)n2Cc1ccccc1,0.55,,
CCc1c(CC(=O)NN)c2cc(OC)ccc2n1Cc1ccccc1-c1ccccc1,2.35,30.1,ED50 (Cavia porcellus): >30 µM
Cc1c(CC(N)=O)c2cc(N)ccc2n1Cc1ccccc1,,1.98,ED50 (Cavia porcellus): 14.5 µM
COc1ccc2c(c1)c(CC(=N)N)c(C)n2Cc1ccccc1,64.7,,
Cc1c(CC(N)=O)c2cc([N+](=O)[O-])ccc2n1Cc1ccccc1,1.51,,
COc1ccc2c(c1)c(C(=O)C(N)=O)c(C)n2Cc1ccccc1,1.23,,
CCc1c(CC(N)=O)c2cc(OC)ccc2n1Cc1ccccc1,,5.91,ED50 (Cavia porcellus): >30 µM
COc1ccc2c(c1)c(CC(N)=O)c(C)n2C(=O)c1ccccc1,7.21,,
COc1cccc(Cn2c(C)c(CC(=O)NN)c3cc(OC)ccc32)c1,2.12,,
COc1ccc2c(c1)c(CC(=O)NN)c(C)n2Cc1cccc(Cl)c1,1.36,1.13,ED50 (Cavia porcellus): >30 µM
COc1ccc2c(c1)c(CC(N)=O)c(C)n2Cc1cccc(Cl)c1,0.91,,
COc1ccc2c(c1)c(CC(=O)O)c(C)n2Cc1ccccc1,13.6,,
COc1ccc2c(c1)c(C(C)C(=O)NN)c(C)n2Cc1ccccc1 (stereo unspecified),32.6,,
COc1ccc2c(c1)c(CC(=O)NN)c(Cl)n2Cc1ccccc1,,0.85,ED50 (Cavia porcellus): 9.37 µM
CCc1c(C(=O)C(N)=O)c2cc(OC)ccc2n1Cc1ccccc1,2.56,,

SMILES,IC50 [1] [µM],Kb [2] [µM],also measured
COc1cccc2c1c(CC(N)=O)c(C)n2Cc1cccc(Cl)c1,1.38,,
Cc1c(CC(=O)NN)c2ccccc2n1-c1ccccc1,38.2,,
CONC(=O)Cc1c(C)n(Cc2ccccc2)c2ccc(OC)cc12,40,,
CCc1c(C(O)C(N)=O)c2c(OC)cccc2n1Cc1ccccc1 (stereo unspecified),53,,
CCCc1c(CC(=O)NN)c2cc(OC)ccc2n1Cc1ccccc1,,27.1,ED50 (Cavia porcellus): >30 µM
COc1ccc2c(c1)c(Cc1nnn[nH]1)c(C)n2Cc1ccccc1,84.7,,
COc1ccc2c(c1)c(CC(=O)NN)c(SC)n2Cc1ccccc1,0.62,,
COC(=O)Cc1c(C)n(Cc2ccccc2)c2ccc(OC)cc12,116,,
COc1ccc2c(c1)c(CC(=O)NN)c(C)n2Cc1cccc(O)c1,,5.96,ED50 (Cavia porcellus): >30 µM
CCCCCCCCCCn1c(C)c(CC(N)=O)c2cc(OC)ccc21,9.47,,
COc1ccc2c(c1)c(CC(=O)NN)c(C)n2Cc1ccccc1-c1ccccc1,,> 10,ED50 (Cavia porcellus): >10 µM
COc1ccc2c(c1)c(CC(=O)NN)c(Br)n2Cc1ccccc1,,0.76,ED50 (Cavia porcellus): 7.32 µM
CCc1c(CC(=O)NN)c2cc(OC)ccc2n1Cc1ccccc1,,2.04,ED50 (Cavia porcellus): >30 µM
COc1ccc2c(C(=O)C(N)=O)c(C)n(Cc3ccccc3)c2c1,1.77,,
COc1ccc2c(c1)c(C(O)C(N)=O)c(C)n2Cc1ccccc1 (stereo unspecified),20.1,,
COc1ccc2c(c1)c(CC(=O)NN)c(C1CC1)n2Cc1ccccc1,0.39,,
COc1ccc2c(c1)c(CC(=N)S)c(C)n2Cc1ccccc1,74.1,,
COc1ccc2c(c1)c(CC(N)=O)c(SC)n2Cc1ccccc1,0.45,7.93,
CCc1c(C(=O)C(N)=O)c2c([N+](=O)[O-])cccc2n1Cc1ccccc1,37.8,,
CCCCCCCCCCn1c(C)c(CC(=O)NN)c2cc(OC)ccc21,9.43,,
COc1ccc2c(C(O)C(N)=O)c(C)n(Cc3ccccc3)c2c1 (stereo unspecified),121,,
COc1ccc2c(c1)c(CC(=O)NN)cn2Cc1ccccc1,4.9,5.64,ED50 (Cavia porcellus): >10 µM
COc1ccc2c(c1)c(CC(N)=O)c(C)n2CCCc1ccccc1,11.1,,
Cc1c(CC(=O)NN)c2cc(C(=O)O)ccc2n1Cc1cccc(Cl)c1,,1.39,ED50 (Cavia porcellus): >30 µM
CNC(=O)Cc1c(C)n(Cc2ccccc2)c2ccc(OC)cc12,142,,
COc1ccc2c(c1)c(CC#N)c(C)n2Cc1ccccc1,,,Mole fraction [3]: Mole fraction as PLA2 IC50 concentration divided by total lipid concentration (1230 uM); inhibition [4]: 45%
